Laboratory results: the NIST ThermoML archive (doi:10.1016/j.jct.2006.03.004)
Numbers after ± are expanded uncertainties.

Settings: Liquid

Q: Which “vapor or sublimation pressure” value (282.55 K) does the source give for FCC(F)(F)F [1,1,1,2-tetrafluoroethane] here?
A: 404 ± 2.7 kPa

Q: What about the “vapor or sublimation pressure” value (293.32 K) of the same molecule?
A: 572.6 ± 3.7 kPa

Q: And the “vapor or sublimation pressure” value (303.24 K)?
A: 773.3 ± 5 kPa

Q: What about the “vapor or sublimation pressure” value (312.66 K) of the same molecule?
A: 1002.2 ± 6.5 kPa

Q: What about the “vapor or sublimation pressure” value (322.82 K) of the same molecule?
A: 1304.9 ± 8.3 kPa
